Data reported in PMC12040169 (PLOS Biology, 2025).

Experiment: in vitro
Details: human, hela cells, % viability

Compound | viability at 28.5 h, 10 µM [%]
Cc1cccc(NC(=O)C(c2ccccc2)N2CCOCC2)c1 (stereo not shown) [CBK269331] | 103
N#CC(C(=O)CN1CCCC1)c1ccccc1 (stereo not shown) [CBK269333] | 98.1
Cc1ncc([N+](=O)[O-])n1CC(=O)Nc1ccccc1F [CBK269335] | 86.4
COc1ccccc1CC(=O)NCc1nc(-c2cccc(C)c2)no1 [CBK269336] | 96.7
O=C1CC(Nc2ccc(N3CCOCC3)cc2)C(=O)N1CCc1ccccc1 (stereo not shown) [CBK269339] | 111
CC1CN(Cc2nc3c(c(=O)n(C)c(=O)n3C)n2CCN2CCOCC2)CC(C)O1 (stereo not shown) [CBK269340] | 93.3
Cc1c(NC(=O)CSc2nnc(-c3ccc4ccccc4n3)s2)c(=O)n(-c2ccccc2)n1C [CBK269341] | 92.7
Cn1c(N)c(C(=O)NCC2CCCO2)c2nc3ccccc3nc21 (stereo not shown) [CBK269342] | 96.8
CCN1CCN(c2ccc(NC(=O)c3cc(-n4cnnc4)ccc3Cl)cc2Cl)CC1 [CBK269343] | 88.1
COc1ccccc1NC(=O)Cn1c(=O)oc2cc(Cl)ccc21 [CBK269344] | 94.6
Cc1cc(C)n(C(=O)CCNS(=O)(=O)c2ccc(Cl)cc2)n1 [CBK269348] | 111
O=C(CSc1nc(=O)cc(O)[nH]1)N1CCc2ccccc21 [CBK269350] | 88.7
O=C(NCCNC(=O)c1ccccc1I)c1ccccn1 [CBK269357] | 89.4
COc1ccc(NC2=NC(=O)CC(C(=O)Nc3ccc(C)c(C)c3)N2)cc1 (stereo not shown) [CBK269359] | 104
CSc1nsc(SCC(=O)N(c2ccccc2)c2ccccc2)n1 [CBK269361] | 95.3
Cc1nc(C)n(CCc2nc3ccccc3[nH]2)n1 [CBK269364] | 105
CCC1CCCCN1Cc1nc2c(c(=O)n(C)c(=O)n2C)n1CCCO (stereo not shown) [CBK269365] | 91.8
Cn1c(=O)[nH]c(=O)c2c1nc(N1CCOCC1)n2CCCSc1nc2ccccc2s1 [CBK269368] | 92.7
O=C(NCCCNC(=O)c1ccc(Cl)cc1Cl)c1ccncc1 [CBK269372] | 89.7
CCN(CC(=O)N1CCN(C)CC1)S(=O)(=O)c1ccc(OC)cc1 [CBK269374] | 89.2
COc1ccc2ccccc2c1CNc1ccc(N2CCOCC2)c(C(=O)O)c1 [CBK269376] | 94.1
COCCn1c(CN2CCC(Cc3ccccc3)CC2)nc2c1c(=O)n(C)c(=O)n2C [CBK269378] | 99.1

Compound | viability at 28.5 h, 10 µM [%]
Cn1c(=O)c2c(nc(CN3CCC(Cc4ccccc4)CC3)n2CCN2CCOCC2)n(C)c1=O [CBK269380] | 100
COc1ccc(S(=O)(=O)NC(C)C(=O)NCc2cccnc2)cc1Cl (stereo not shown) [CBK269384] | 95.8
CS(=O)(=O)N(CC(=O)NCc1ccccn1)c1ccc2c(c1)OCO2 [CBK269385] | 87.2
N#CCSc1nc(-c2cccnc2)ccc1C(=O)O [CBK269387] | 106
FC(F)(F)c1cc(-c2ccccc2)nc2onc(OCCN3CCOCC3)c12 [CBK269392] | 90.9
OCc1cc(Cl)c(Cl)c(CO)c1O [CBK269397] | 95.5
COc1ccccc1-c1noc(C2CCN(S(=O)(=O)c3ccc(F)cc3)CC2)n1 [CBK269401] | 92.9
O=C(O)CCN1CCN(S(=O)(=O)c2ccccc2)CC1 [CBK269402] | 106
O=C(Nc1ccc(Cl)cc1)Nc1cccc(C(=O)O)c1 [CBK269404] | 98.7
O=C(CSc1ncnc2c1cnn2-c1ccccc1)Nc1ccccc1 [CBK269408] | 96.4
Cc1ccc2nsnc2c1NC(=O)CSc1nccn1C [CBK269411] | 104
Cc1ccc(C2c3c(O)n[nH]c3CC(C)(O)C2C(=O)OCc2ccccc2)cc1 (stereo not shown) [CBK269417] | 92.8
Cc1c(NC(=O)CSc2nncn2C)ccc2nsnc12 [CBK269418] | 104
Cc1nnc(SCCn2c(N3CC(C)CC(C)C3)nc3c2c(=O)n(C)c(=O)n3C)s1 (stereo not shown) [CBK269419] | 100
Cc1cccc(NC(=O)NCc2ccccn2)c1 [CBK269422] | 92.3
CN1CCN(c2ccc(NC(=O)c3cc([N+](=O)[O-])ccc3N3CCOCC3)cc2)CC1 [CBK269425] | 95.6
CC(Nc1nc(N2CCN(CCO)CC2)nc2ccccc12)c1ccccc1 (stereo not shown) [CBK269427] | 106
O=C(NCCCNC(=O)c1ccc(Br)o1)c1ccccn1 [CBK269430] | 107
COC(=O)c1c(NC(=O)C(=O)NCc2ccccn2)sc2c1CCC2 [CBK269431] | 94.6
CN(CC(=O)C(C#N)c1ccccc1)Cc1ccccc1 (stereo not shown) [CBK269432] | 96.8
COc1cccc2cc(C(=O)C3=C(O)C(=O)N(CCN4CCOCC4)C3c3cccs3)oc12 (stereo not shown) [CBK269433] | 101
CS(=O)(=O)N(Cc1ccco1)Cc1cc2ccccc2nc1O [CBK269434] | 111

Compound | viability at 28.5 h, 10 µM [%]
N#CC1=C(Nc2ccccc2)Oc2cc(N)ccc2C1c1cccnc1 (stereo not shown) [CBK269435] | 100
CCN(CC(=O)N1CCN(Cc2ccc3c(c2)OCO3)CC1)S(=O)(=O)c1ccccc1 [CBK269436] | 92.3
Cn1c(=O)c2c(nc(CN3CCN(C(=O)c4ccco4)CC3)n2Cc2ccccc2)n(C)c1=O [CBK269437] | 93
Cc1cc(Cl)ccc1NC(=O)CN1CCN(Cc2ccccc2)CC1 [CBK269438] | 93.6
O=C(Cn1c(-c2cncs2)nc2ccccc21)Nc1ccc(C(=O)N2CCCCC2)cc1 [CBK269439] | 102
CN(Cc1ccccc1)Cc1nc2c([nH]1)c(=O)[nH]c(=O)n2C [CBK269442] | 106
Cc1ccc(S(=O)(=O)N2CCN(CCC(=O)O)CC2)cc1 [CBK269443] | 97.1
O=C(O)c1ccc(NC(=O)c2ncn(-c3ccccc3)n2)cc1 [CBK269445] | 97.7
O=c1c2c3c(sc2ncn1CC(O)CO)CCCC3 (stereo not shown) [CBK269448] | 94.8
COc1ccc(Br)cc1CNCc1ccc(C(=O)O)cc1 [CBK269449C] | 96.2
COc1ccc(N2CCN(Cc3nc4c(c(=O)n(C)c(=O)n4C)n3C(C)C(C)=O)CC2)cc1 (stereo not shown) [CBK269453] | 88.7
CN(C)CC(=O)Nc1ccc(Oc2ccc(Cl)cc2)cc1 [CBK269459C] | 94.9
O=S(=O)(NCc1nc2ccccc2[nH]1)c1ccccc1 [CBK269460] | 94.6
Cn1c(=O)n(C)c2cc(CNc3ccc(N4CCOCC4)c(C(=O)O)c3)ccc21 [CBK269463] | 84.7
O=c1c2c3nc4ccccc4nc3n(CCc3ccccc3)c2ncn1C1CCCC1 [CBK269464] | 105
COc1ccc(N2CCN(Cc3nc4c(c(=O)n(C)c(=O)n4C)n3CC(C)=O)CC2)cc1 [CBK269465] | 103
CCOC(=O)CSc1nc(C)cc(Oc2ccc(=O)n(C)n2)n1 [CBK269476] | 101
Cc1ccc(C(=O)NCCCNC(=O)c2ccncc2)cc1 [CBK269477] | 86
Cc1[nH]c2ccccc2c1C(CC(=O)c1ccc(Br)cc1)C(=O)O (stereo not shown) [CBK269480] | 90.9
O=C1NC2CCCCC2NC1CC(=O)N1CCN(Cc2ccccc2)CC1 (stereo not shown) [CBK269484] | 92.5
N#Cc1c(NC(=O)C(=O)NCc2cccnc2)sc2c1CCCC2 [CBK269485] | 91
COC(=O)c1ccc(NC(=O)c2ccc(-n3cccn3)cc2)cc1 [CBK269486] | 90.7

Compound | viability at 28.5 h, 10 µM [%]
Cc1ccccc1Cn1c(CN2CCN(c3ccccc3)CC2)nc2c1c(=O)n(C)c(=O)n2C [CBK269488] | 94.6
Fc1ccc(-c2cc(C(F)(F)F)nc(NCC3CCCO3)n2)cc1 (stereo not shown) [CBK269492] | 89.1
Cc1cccnc1NC(=O)c1ccc(NC(C)C)c([N+](=O)[O-])c1 [CBK269494] | 86.1
O=C(Nc1ccc(N2CCN(C(=O)c3ccccc3F)CC2)cc1)c1nc[nH]n1 [CBK269497] | 107
COc1ccc(C(=O)COc2nc3c(C(F)(F)F)cc(C4CC4)nc3o2)cc1 [CBK269498] | 87
Cn1c(=O)[nH]c(=O)c2c1nc(NC1CCCCC1)n2CCCc1ccccc1 [CBK269500] | 92.7
COc1ccccc1/C=C/c1nn2c(C(C)C)nnc2s1 [CBK269501] | 79.3
O=c1c2c3nc4ccccc4nc3n(CCc3ccccc3)c2ncn1Cc1ccco1 [CBK269502] | 77.5
COc1cccc(/C=C/c2nc(C#N)c(NCCCN3CCOCC3)o2)c1 [CBK269506] | 107
CN1CCN(Cc2nc3c(c(=O)n(C)c(=O)n3C)n2CCc2ccccc2)CC1 [CBK269507] | 96.2
Cc1ccc2[nH]c(SCc3nc(-c4cccs4)no3)nc2c1 [CBK269509] | 108
O=C(COc1ccc(S(=O)(=O)N2CCCCC2)cc1Cl)N1CCc2ccccc2C1 [CBK269510] | 88
CCOc1cc(-c2noc(CCC(=O)N3CCN(C)CC3)n2)ccc1OC [CBK269513] | 105
O=C(CN1CCN(S(=O)(=O)N2CCCCC2)CC1)Nc1ccc(Br)cc1 [CBK269515] | 91.7
O=C(Nc1cccc(Cl)c1)Nc1ccc(C(=O)O)c(O)c1 [CBK269518] | 94.2
Cn1c(=O)c2[nH]c(CN3CCN(Cc4ccccc4)CC3)nc2n(C)c1=O [CBK269519] | 86.3
COc1cccc(-c2coc3cc4oc(=O)c(CC(=O)O)c(C)c4cc23)c1 [CBK269520] | 86.6
Cn1c(=O)c2c(nc(CN3CCCCC3)n2CCCc2ccccc2)n(C)c1=O [CBK269521] | 96.5
Cc1cc(S(=O)(=O)NCCCn2ccnc2)c(C)cc1Br [CBK269525] | 91.8
COc1ccc(NC(=O)COc2noc3nc(C)c(C)c(C)c23)cc1OC [CBK269526] | 108
NC(=O)C1CCN(CC(O)COc2ccc(-c3ccccc3)cc2)CC1 (stereo not shown) [CBK269528] | 89.9
Cn1c(=O)[nH]c(=O)c2c1nc(N1CCN(Cc3ccccc3)CC1)n2CCCc1ccccc1 [CBK269529] | 104
